Patent publication US5338849A, “Azaindoles, preparation processes and medicinal products containing them” (Lipha, Lyonnaise Industrielle Pharmaceutique, priority 1992, dated 1994)

Experiments:
aortic ACAT = biological target: T1, aortic ACAT (Oryctolagus cuniculus, UniProt A0A5F9CPP4); assay: Test A: measurement of the inhibition of aortic ACAT in vitro in rabbits; assay type: biochemical, male New Zealand rabbits; details: rabbit aortic microsomes, [^14 C]oleoylcoenzyme A, read-out: 50% inhibitory concentration (IC50), concentration of compound which inhibits the ACAT activity by 50%
T1 construct: the aorta is removed, dissected and homogenised in order to prepare the microsomal fraction by ultracentrifugation; from tissue; host or cells: aorta microsomes of cholesterol-fed male New Zealand rabbits
T1 sequence (A0A5F9CPP4 1-555): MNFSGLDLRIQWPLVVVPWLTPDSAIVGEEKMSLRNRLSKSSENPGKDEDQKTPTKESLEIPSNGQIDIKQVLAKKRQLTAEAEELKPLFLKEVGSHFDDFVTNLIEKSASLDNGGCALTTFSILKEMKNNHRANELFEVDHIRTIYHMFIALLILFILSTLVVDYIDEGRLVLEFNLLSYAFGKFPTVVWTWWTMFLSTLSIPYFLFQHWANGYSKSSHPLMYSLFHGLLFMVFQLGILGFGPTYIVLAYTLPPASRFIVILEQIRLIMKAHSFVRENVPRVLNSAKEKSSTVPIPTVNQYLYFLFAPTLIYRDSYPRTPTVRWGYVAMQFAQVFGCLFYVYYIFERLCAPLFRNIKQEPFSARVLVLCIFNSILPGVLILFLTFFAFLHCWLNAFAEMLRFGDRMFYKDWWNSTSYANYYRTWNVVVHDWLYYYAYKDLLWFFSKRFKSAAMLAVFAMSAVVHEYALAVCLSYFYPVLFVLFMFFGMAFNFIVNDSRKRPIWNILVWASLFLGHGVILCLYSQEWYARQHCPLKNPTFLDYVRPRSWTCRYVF
Method: Test A: measurement of the inhibition of aortic ACAT in vitro in rabbits; male New Zealand rabbits weighing between 2.2 and 2.5 kg, subjected beforehand for 15 days to a diet enriched with 1.25% of cholesterol, are sacrificed by cervical dislocation; the aorta is removed, dissected and homogenised in order to prepare the microsomal fraction by ultracentrifugation; these microsomes are incubated in the presence of [^14 C]oleoylcoenzyme A according to the method described by P. J. GILLIES et al., Exp. and Mol. Pathol., 1986, 44, 329-339; the lipids are extracted from the incubate with a methanol/chloroform mixture and the [^14 C]oleoylcholesterol is separated by TLC: the latter compound represents the measure of the ACAT activity, and the results are expressed in the form of a 50% inhibitory concentration (IC50), representing the concentration of compound which inhibits the ACAT activity by 50%.

blood cholesterol level = assay: Test B: measurement of the hypocholesterolaemic effect in rodents; assay type: in vivo, male Wistar rats; details: Rattus norvegicus; oral, cholesterol-fed rats (2.5% cholesterol, 8 days), 24 hours and 4 hours before sacrifice; read-out: 25% effective dose (ED25), quantity of compound which lowers the blood cholesterol level by 25%
Method: Test B: measurement of the hypocholesterolaemic effect in rodents; male Wistar rats weighing 200-220 g are subjected to a diet enriched with 2.5% of cholesterol for 8 days; on the last two days, they are treated orally with the test product, 24 hours and 4 hours before being sacrificed by exsanguination: the blood cholesterol level is evaluated on an aliquot fraction of serum by an automated enzymatic method. The results are expressed in the form of a 25% effective dose (ED25) in mg per kg of animal body weight, which represents the quantity of compound which lowers the blood cholesterol level by 25%.

[1] = tested on: intestinal absorption of cholesterol; assay: Test C: measurement of the inhibition of intestinal absorption of cholesterol in rats; assay type: in vivo, Wistar male rats; details: Rattus norvegicus; oral, fasted rats, Triton WR-1339 i.v., [^3 H]cholesterol orally; read-out: 50% effective dose (ED50), quantity of compound which inhibits intestinal absorption of cholesterol by 50%
Method: Test C: measurement of the inhibition of intestinal absorption of cholesterol in rats; Wistar male rats weighing 230-250 g, fasted for 24 hours, are treated simultaneously with the test product administered orally and with Triton WR-1339 administered i.v.; one hour later, they are treated again orally with [^3 H]cholesterol; three hours later, under ether anaesthesia, 1 ml of blood is withdrawn from their retro-orbital sinus: the blood radioactivity, evaluated on 0.1 ml of serum, represents the measure of the absorption of the [^3 H]cholesterol administered. The results are expressed in the form of a 50% effective dose (ED50) in mg per kg of animal body weight, which represents the quantity of compound which inhibits intestinal absorption of cholesterol by 50%.

CC(C)c1cccc(C(C)C)c1NC(=O)NCC1(n2ccc3cccnc32)CCCC1 [compound no. 1, N^1-[1-(7-azaindol-1-yl)cyclopentylmethyl]-N^2-(2,6-diisopropylphenyl)urea]
IC50 (aortic ACAT): 160 nM
ED25 (blood cholesterol level): 0.202 mg/kg
ED50 [1]: 0.056 mg/kg
